Data as given in patent US20210045385A1, “PYRIDAZINONE-SUBSTITUTED KETOXIMES AS HERBICIDES” (FMC Corporation, priority 2018, published 2021).

Assays:
Type in all cases: in vivo
[1] = tested on: foxtail, giant (giant foxtail, Setaria faberii); assay: Test A preemergence, visual plant response rating
Method in brief: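 Preemergence: seeds in loam/sand blend given directed soil spray of compound in non-phytotoxic solvent with surfactant. Postemergence: plants 2–10 cm, one- to two-leaf stage, sprayed with same formulation. Visual injury rated vs untreated controls after ~10 days in greenhouse, 0 (no effect) to 100 (complete control).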

[2] = tested on: kochia (Kochia scoparia); assay: Test A preemergence, visual plant response rating
Method in brief: (§1)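 Ratings use a 0–100 visual scale (100 = complete control) against untreated controls, scored about 10 days after greenhouse treatment. Test chemicals were formulated in surfactant-containing non-phytotoxic solvent and applied either as soil spray after planting (preemergence) or onto one- to two-leaf, 2–10 cm plants (postemergence).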

[3] = tested on: pigweed (Amaranthus retroflexus); assay: Test A preemergence, visual plant response rating
Method in brief: as §1

[4] = tested on: barnyardgrass (Echinochloa crus-galli); assay: Test A preemergence, visual plant response rating
Method in brief: as §1

[5] = tested on: Italian ryegrass (Lolium multiflorum); assay: Test A preemergence, visual plant response rating
Method in brief: as §1

[6] = tested on: ragweed (common ragweed, Ambrosia elatior); assay: Test A preemergence, visual plant response rating
Method in brief: as §1

[7] = tested on: corn (Zea mays); assay: Test A postemergence, visual plant response rating
Method in brief: as §1

[8] = tested on: galium (catchweed bedstraw, Galium aparine); assay: Test A postemergence, visual plant response rating
Method in brief: as §1

[9] = tested on: foxtail, giant (giant foxtail, Setaria faberii); assay: Test A postemergence, visual plant response rating
Method in brief: as §1

[10] = tested on: kochia (Kochia scoparia); assay: Test A postemergence, visual plant response rating
Method in brief: as §1

[11] = tested on: pigweed (Amaranthus retroflexus); assay: Test A postemergence, visual plant response rating
Method in brief: as §1

[12] = tested on: wheat (Triticum aestivum); assay: Test A postemergence, visual plant response rating
Method in brief: as §1

[13] = tested on: barnyardgrass (Echinochloa crus-galli); assay: Test A postemergence, visual plant response rating
Method in brief: as §1

[14] = tested on: Italian ryegrass (Lolium multiflorum); assay: Test A postemergence, visual plant response rating
Method in brief: as §1

[15] = tested on: blackgrass (Alopecurus myosuroides); assay: Test A postemergence, visual plant response rating
Method in brief: as §1

[16] = tested on: ragweed (common ragweed, Ambrosia elatior); assay: Test A postemergence, visual plant response rating
Method in brief: as §1

[17] = tested on: sedge, umbrella (small-flower umbrella sedge, Cyperus difformis); assay: Test B flooded paddy test, visual plant response rating; settings: 250 g ai/ha, Flood, applied to paddy water, 2-leaf stage, evaluated after 13 to 15 days
Method in brief: (§2)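 Rice, umbrella sedge, ducksalad and barnyardgrass grown to 2-leaf stage; pots flooded 3 cm above soil and compound applied directly to paddy water, depth maintained.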

[18] = tested on: ducksalad (Heteranhera limosa); assay: as above; settings: 250 g ai/ha, Flood, applied to paddy water, 2-leaf stage, evaluated after 13 to 15 days
Method in brief: as §2

[19] = tested on: barnyardgrass (Echinochloa crus-galli); assay: as above; settings: 250 g ai/ha, Flood, applied to paddy water, 2-leaf stage, evaluated after 13 to 15 days
Method in brief: as §2

[20] = tested on: rice (Oryza sativa); assay: as above; settings: 250 g ai/ha, Flood, applied to paddy water, 2-leaf stage, evaluated after 13 to 15 days
Method in brief: as §2

[21] = 125 g ai/ha, preemergence, 0 to 100 scale, 0 no effect, 100 complete control
[22] = 500 g ai/ha Preemergence, approx. 10 days
[23] = 500 g ai/ha, postemergence, 0 is no effect, 100 is complete control
[24] = Postemergence, 125 g ai/ha, 0 to 100 scale (0 no effect, 100 complete control)

SMILES: C#CCO/N=C(\c1c(O)c(C)nn(C)c1=O)c1cccc2ccccc12 [Compound 83, 5-hydroxy-2,6-dimethyl-4-[(Z)-[(2-propyn-1-yloxy)imino]-1-naphthalenylmethyl]-3(2H)-pyridazinone]
- Foxtail, Giant plant response rating [1, 21]: 90
- Foxtail, Giant plant response rating (0 to 100 scale) [1, 22]: 100
- Kochia plant response rating [2, 21]: 20
- Kochia plant response rating (0 to 100 scale) [2, 22]: 100
- Pigweed plant response rating [3, 21]: 100
- Pigweed plant response rating (0 to 100 scale) [3, 22]: 100
- Barnyardgrass plant response rating [4, 21]: 80
- Barnyardgrass plant response rating (0 to 100 scale) [4, 22]: 100
- Ryegrass, Italian plant response rating [5, 21]: 80
- Ryegrass, Italian plant response rating (0 to 100 scale) [5, 22]: 100
- Ragweed plant response rating [6, 21]: 100
- Ragweed plant response rating (0 to 100 scale) [6, 22]: 100
- Corn plant response rating (0 to 100 scale) [7, 23]: 40
- Corn plant response rating [7, 24]: 20
- Galium plant response rating (0 to 100 scale) [8, 23]: 100
- Galium plant response rating [8, 24]: 90
- Foxtail, Giant plant response rating (0 to 100 scale) [9, 23]: 80
- Foxtail, Giant plant response rating [9, 24]: 70
- Kochia plant response rating (0 to 100 scale) [10, 23]: 90
- Kochia plant response rating [10, 24]: 80
- Pigweed plant response rating (0 to 100 scale) [11, 23]: 90
- Pigweed plant response rating [11, 24]: 80
- Wheat plant response rating (0 to 100 scale) [12, 23]: 60
- Wheat plant response rating [12, 24]: 40
- Barnyardgrass plant response rating (0 to 100 scale) [13, 23]: 80
- Barnyardgrass plant response rating [13, 24]: 60
- Ryegrass, Italian plant response rating (0 to 100 scale) [14, 23]: 100
- Ryegrass, Italian plant response rating [14, 24]: 90
- Blackgrass plant response rating (0 to 100 scale) [15, 23]: 100
- Blackgrass plant response rating [15, 24]: 90
- Ragweed plant response rating (0 to 100 scale) [16, 23]: 100
- Ragweed plant response rating [16, 24]: 90
- Plant response rating, Sedge, Umbrella (0 to 100 scale, 0 is no effect, 100 is complete control) [17]: 70
- Plant response rating, Ducksalad (0 to 100 scale, 0 is no effect, 100 is complete control) [18]: 75
- Plant response rating, Barnyardgrass (0 to 100 scale, 0 is no effect, 100 is complete control) [19]: 0
- Plant response rating, Rice (0 to 100 scale, 0 is no effect, 100 is complete control) [20]: 0
